These molecules were tested against human capsaicin receptor (VR1) (Homo sapiens, UniProt Q8NER1) (assay: Capsaicin receptor binding assay ([3H]RTX competition, VR1-transfected HEK293 membranes)).
Chain of human capsaicin receptor (VR1) (Q8NER1 whole entry): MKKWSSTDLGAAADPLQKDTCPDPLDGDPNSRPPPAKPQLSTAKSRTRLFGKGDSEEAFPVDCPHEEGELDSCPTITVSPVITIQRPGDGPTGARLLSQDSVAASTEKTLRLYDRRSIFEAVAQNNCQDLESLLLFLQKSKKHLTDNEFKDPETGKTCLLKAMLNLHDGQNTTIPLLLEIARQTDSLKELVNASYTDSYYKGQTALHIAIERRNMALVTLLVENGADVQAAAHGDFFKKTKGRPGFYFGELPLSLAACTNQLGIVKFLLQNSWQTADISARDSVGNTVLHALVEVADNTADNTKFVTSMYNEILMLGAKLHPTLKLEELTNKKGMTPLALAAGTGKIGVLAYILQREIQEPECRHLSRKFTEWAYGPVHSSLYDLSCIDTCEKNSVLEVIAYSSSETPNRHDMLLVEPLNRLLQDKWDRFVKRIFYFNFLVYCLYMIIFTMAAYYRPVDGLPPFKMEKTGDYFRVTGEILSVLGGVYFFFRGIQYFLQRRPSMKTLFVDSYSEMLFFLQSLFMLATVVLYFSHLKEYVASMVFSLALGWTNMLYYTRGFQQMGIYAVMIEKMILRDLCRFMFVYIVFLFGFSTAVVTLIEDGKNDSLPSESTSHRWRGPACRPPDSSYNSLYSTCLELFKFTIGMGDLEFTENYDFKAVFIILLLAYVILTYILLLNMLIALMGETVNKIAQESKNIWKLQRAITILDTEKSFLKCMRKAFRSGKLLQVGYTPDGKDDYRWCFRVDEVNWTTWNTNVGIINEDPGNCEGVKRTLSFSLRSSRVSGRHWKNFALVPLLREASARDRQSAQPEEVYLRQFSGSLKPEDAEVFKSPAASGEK
Experimental: Human embryonic kidney (HEK293) cells were transfected with the pBK-CMV expression construct encoding the full length human capsaicin receptor using standard methods. The transfected cells were selected for two weeks in media containing G418 (400 μg/ml) to obtain a pool of stably transfected cells. Independent clones were isolated from this pool by limiting dilution to obtain clonal stable cell lines for use in subsequent experiments.
For radioligand binding experiments, cells were seeded in T175 cell culture flasks in media without antibiotics and grown to approximately 90% confluency. The flasks were then washed with PBS and harvested in PBS containing 5 mM EDTA. The cells were pelleted by gentle centrifugation and stored at −80° C. until assayed.
Previously frozen cells were disrupted with the aid of a tissue homogenizer in ice-cold HEPES homogenization buffer (5 mM KCl 5, 5.8 mM NaCl, 0.75 mM CaCl2, 2 mM MgCl2, 320 mM sucrose, and 10 mM HEPES pH 7.4). Tissue homogenates were first centrifuged for 10 minutes at 1000×g (4° C.) to remove the nuclear fraction and debris, and then the supernatant from the first centrifugation is further centrifuged for 30 minutes at 35,000×g (4° C.) to obtain a partially purified membrane fraction. Membranes were resuspended in the HEPES homogenization buffer prior to the assay. An aliquot of this membrane homogenate was used to determine protein concentration via the Bradford method (BIO-RAD Protein Assay Kit, #500-0001, BIO-RAD, Hercules, Calif.).
Binding studies with [^3H] […] In this protocol, non-specific RTX binding is reduced by adding bovine alpha1 acid glycoprotein (100 μg per tube) after the binding reaction has been terminated.
Binding assay mixtures are set up on ice and contain [^3H]RTX (specific activity 2200 mCi/ml), 2 μl non-radioactive test compound, 0.25 mg/ml bovine serum albumin (Cohn fraction V), and 5×10^4-1×10^5 VR1-transfected cells. The final volume is adjusted to 500 μl (for competition binding assays) or 1,000 μl (for saturation binding assays) with the ice-cold HEPES homogenization buffer solution (pH 7.4) described above. Non-specific binding is defined as that occurring in the presence of 1 μM non-radioactive RTX (Alexis Corp.; San Diego, Calif.). For saturation binding, [^3H]RTX is added in the concentration range of 7-1,000 pM, using 1 to 2 dilutions. Typically 11 concentration points are collected per saturation binding curve.
Competition binding assays are performed in the presence of 60 pM [^3 H]RTX and various concentrations of test compound. The binding reactions are initiated by transferring the assay mixtures into a 37° C. water bath and are terminated following a 60 minute incubation period by cooling the tubes on ice. Membrane-bound RTX is separated from free, as well as any alpha,-acid glycoprotein-bound RTX, by filtration onto WALLAC glass fiber filters (PERKIN-ELMER, Gaithersburg, Md.) which were pre-soaked with 1.0% PEI (polyethyleneimine) for 2 hours prior to use.

**Q.** O=C(NCCN1CCCC1)c1nc(Nc2ccc(C(F)(F)F)cc2)c2ccc(-c3ncccc3C(F)(F)F)nc2n1 [Compound 437, 4-(4-Trifluoromethyl-phenylamino)-7-(3-trifluoromethyl-pyridin-2-yl)-pyrido[2,3-d]pyrimidine-2-carboxylic acid (2-pyrrolidin-1-yl-ethyl)-amide] was tested. Which Ki did it give?
**A.** The Ki was less than 1 µM.

**Q.** With OCCN1CCN(Cc2nc(Nc3ccc(C(F)(F)F)nc3)c3ccc(-c4ncccc4C(F)(F)F)cc3n2)CC1 [Compound 492, 2-{4-[7-(3-Trifluoromethyl-pyridin-2-yl)-4-(6-trifluoromethyl-pyridin-3-ylamino)-quinazolin-2-ylmethyl]-piperazin-1-yl}-ethanol] as the molecule, how does the Ki read?
**A.** Its Ki is less than 1 µM.

**Q.** Which Ki does the source give for FC(F)(F)c1ccc(Nc2nc(CCN3CCCCCCC3)nc3cc(-c4ncccc4C(F)(F)F)ccc23)cc1 [Compound 405, [2-Azocan-1-ylethyl-7-(3-trifluoromethyl-pyridin-2-yl)-quinazolin-4-yl]-(4-trifluoromethyl-phenyl)-amine] here?
**A.** The Ki was less than 1 µM.

**Q.** CC(C)(C)c1ccc(Nc2nc(CN3CCCC3)nc3cc(-c4ncccc4C(F)(F)F)ccc23)cc1 [Compound 475, (4-tert-Butyl-phenyl)-[2-pyrrolidin-1-ylmethyl-7-(3-trifluoromethyl-pyridin-2-yl)-quinazolin-4-yl]-amine] was tested. Which Ki did it give?
**A.** Its Ki is less than 1 µM.

**Q.** Which Ki does the source give for COCc1nc(Nc2ccc(C(C)(C)C#N)cc2)c2ccc(-c3ncccc3C)nc2n1 [Compound 98, 2-{4-[2-Methoxymethyl-7-(3-methyl-pyridin-2-yl)-pyrido[2,3-d]pyrimidin-4-ylamino]-phenyl}-2-methyl-propionitrile] here?
**A.** The Ki was less than 1 µM.

**Q.** How did the Ki turn out when Cc1cccnc1-c1ccc2c(Nc3ccc(C(C)(C)C)cc3)nc(COCC(C)C)nc2n1 [Compound 129, (4-tert-Butyl-phenyl)-[2-isobutoxymethyl-7-(3-methyl-pyridin-2-yl)-pyrido[2,3-d]pyrimidin-4-yl]-amine] was run?
**A.** Its Ki is less than 1 µM.

**Q.** CN(CCc1nc(Nc2ccc(C(F)(F)F)cc2)c2ccc(-c3ncccc3C(F)(F)F)cc2n1)Cc1ccccc1F [Compound 396, [2-{2-[(2-Fluoro-benzyl)-methyl-amino]-ethyl}-7-(3-trifluoromethyl-pyridin-2-yl)-quinazolin-4-yl]-(4-trifluoromethyl-phenyl)-amine] was tested. Which Ki did it give?
**A.** Its Ki is less than 1 µM.

**Q.** With O=S(=O)(c1ccc(Nc2nc(COC3CCCC3)nc3cc(-c4ncccc4C(F)(F)F)ccc23)cc1)N1CCOCC1 [Compound 143, [2-Cyclopentyloxymethyl-7-(3-trifluoromethyl-pyridin-2-yl)-quinazolin-4-yl]-[4-(morpholine-4-sulfonyl)-phenyl]-amine] as the molecule, how does the Ki read?
**A.** Its Ki is less than 1 µM.

**Q.** How did the Ki turn out when COc1cc(Nc2nc(COCC(C)C)nc3nc(-c4ncccc4Cl)ccc23)ccc1F [Compound 285, [7-(3-Chloro-pyridin-2-yl)-2-isobutoxymethyl-pyrido[2,3-d]pyrimidin-4-yl]-(4-fluoro-3-methoxy-phenyl)-amine] was run?
**A.** Its Ki is less than 1 µM.

**Q.** For FC(F)(F)c1ccc(Nc2nc(CN3CCSCC3)nc3cc(-c4ncccc4C(F)(F)F)ccc23)cn1 [Compound 555, [2-Thiomorpholin-4-ylmethyl-7-(3-trifluoromethyl-pyridin-2-yl)-quinazolin-4-yl]-(6-trifluoromethyl-pyridin-3-yl)-amine], which Ki is on record?
**A.** The Ki was less than 1 µM.

**Q.** COCCN(CCOC)Cc1nc(Nc2ccc(C(C)C(F)(F)F)cc2)c2ccc(-c3ncccc3C(F)(F)F)cc2n1 (stereo not shown) [Compound 527, [2-{[Bis-(2-methoxy-ethyl)-amino]-methyl}-7-(3-trifluoromethyl-pyridin-2-yl)-quinazolin-4-yl]-[4-(2,2,2-trifluoro-1-methyl-ethyl)-phenyl]-amine] was tested. Which Ki did it give?
**A.** Its Ki is less than 1 µM.

**Q.** CC(C)c1ccc(Nc2nc(C3CCN(C)CC3)nc3nc(-c4ncccc4Cl)ccc23)cc1 [Compound 770, [7-(3-Chloro-pyridin-2-yl)-2-(1-methyl-piperidin-4-yl)-pyrido[2,3-d]pyrimidin-4-yl]-(4-isopropyl-phenyl)-amine] was tested. Which Ki did it give?
**A.** The Ki was less than 1 µM.

**Q.** For CC(C)(C)c1ccc(Nc2nc(C(C)(C)CO)nc3cc(-c4ncccc4C(F)(F)F)ccc23)cc1 [Compound 217, 2-[4-(4-tert-Butyl-phenylamino)-7-(3-trifluoromethyl-pyridin-2-yl)-quinazolin-2-yl]-2-methyl-propan-1-ol], which Ki is on record?
**A.** Its Ki is less than 1 µM.

**Q.** For CCN1CCCC1CNC(=O)c1nc(Nc2ccc(C(F)(F)F)cc2)c2ccc(-c3ncccc3C(F)(F)F)nc2n1 (stereo not shown) [Compound 431, 4-(4-Trifluoromethyl-phenylamino)-7-(3-trifluoromethyl-pyridin-2-yl)-pyrido[2,3-d]pyrimidine-2-carboxylic acid (1-ethyl-pyrrolidin-2-ylmethyl)-amide], which Ki is on record?
**A.** Its Ki is less than 1 µM.

**Q.** Which Ki does the source give for CC(C)(C)c1ccc(Nc2nc(CN3C[C@@H](O)C[C@@H]3C(=O)O)nc3cc(-c4ncccc4C(F)(F)F)ccc23)cc1 (stereo in doubt) [Compound 753, (R,S)-1-[4-(4-tert-Butyl-phenylamino)-7-(3-trifluoromethyl-pyridin-2-yl)-quinazolin-2-ylmethyl]-4-hydroxy-pyrrolidine-2-carboxylic acid] here?
**A.** The Ki was less than 1 µM.

**Q.** For C=CCN(C)CCc1nc(Nc2ccc(C(F)(F)F)cc2)c2ccc(-c3ncccc3C(F)(F)F)cc2n1 [Compound 410, [2-[(Allyl-methyl-amino)-ethyl]-7-(3-trifluoromethyl-pyridin-2-yl)-quinazolin-4-yl]-(4-trifluoromethyl-phenyl)-amine], which Ki is on record?
**A.** The Ki was less than 1 µM.

**Q.** With O=C(O)C1CCN(C(=O)c2nc(Nc3ccc(C(F)(F)F)cc3)c3ccc(-c4ncccc4C(F)(F)F)nc3n2)CC1 [Compound 767, 1-[4-(4-Trifluoromethyl-phenylamino)-7-(3-trifluoromethyl-pyridin-2-yl)-pyrido[2,3-d]pyrimidine-2-carbonyl]-piperidine-4-carboxylic acid] as the molecule, how does the Ki read?
**A.** The Ki was less than 1 µM.

**Q.** Which Ki does the source give for NC(=O)C1CCN(Cc2nc(Nc3ccc(C(F)(F)F)nc3)c3ccc(-c4ncccc4C(F)(F)F)cc3n2)CC1 [Compound 487, 1-[7-(3-Trifluoromethyl-pyridin-2-yl)-4-(6-trifluoromethyl-pyridin-3-ylamino)-quinazolin-2-ylmethyl]-piperidine-4-carboxylic acid amide] here?
**A.** Its Ki is less than 1 µM.

**Q.** CC(C)c1ccc(Nc2nc(CN3C[C@@H](C)O[C@H](C)C3)nc3cc(-c4ncccc4Cl)ccc23)cc1 [Compound 625, (R,R)-(4-Isopropyl-phenyl)-[7-(3-chloro-pyridin-2-yl)-2-(2,6-dimethyl-morpholin-4-ylmethyl)-quinazolin-4-yl]-amine] was tested. Which Ki did it give?
**A.** The Ki was less than 1 µM.

**Q.** How did the Ki turn out when O=C(O)C1CCN(Cc2nc(Nc3ccc(C(F)(F)F)cc3)c3ccc(-c4ncccc4C(F)(F)F)cc3n2)CC1 [Compound 728, 1-[4-(4-Trifluoromethyl-phenylamino)-7-(3-trifluoromethyl-pyridin-2-yl)-quinazolin-2-ylmethyl]-piperidine-4-carboxylic acid] was run?
**A.** Its Ki is less than 1 µM.

**Q.** How did the Ki turn out when CCNC(=O)c1nc(Nc2ccc(C(F)(F)F)cc2)c2ccc(-c3ncccc3C(F)(F)F)nc2n1 [Compound 450, 4-(4-Trifluoromethyl-phenylamino)-7-(3-trifluoromethyl-pyridin-2-yl)-pyrido[2,3-d]pyrimidine-2-carboxylic acid ethylamide] was run?
**A.** Its Ki is less than 1 µM.

**Q.** O=C(NCCCN1CCCC1)c1nc(Nc2ccc(C(F)(F)F)cc2)c2ccc(-c3ncccc3C(F)(F)F)nc2n1 [Compound 432, 4-(4-Trifluoromethyl-phenylamino)-7-(3-trifluoromethyl-pyridin-2-yl)-pyrido[2,3-d]pyrimidine-2-carboxylic acid (3-pyrrolidin-1-yl-propyl)-amide] was tested. Which Ki did it give?
**A.** The Ki was less than 1 µM.

Source: patent US20040156869A1, “2-substituted quinazolin-4-ylamine analogues” (Neurogen Corporation, priority 2002, published 2004)
